Measured values from patent publication US8058306B2, “Phenyl pyrrole aminoguanidine derivatives” (Action Pharma A/S, priority 2006, dated 2011).
Several values for one entry are separate records, joined by “and”; a condition that tells them apart may be missing. Identical values can stand only once. Entries after “also recorded” stand apart in the source; their conditions may differ. Like-named read-outs stand apart in the source and are kept apart here.

Experiment: Plasma kinetics in rat following intravenous and oral administration;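 as to AUC0-∞: parameter is AUC from zero to infinity in ng·h/mL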
Assay type: in vivo, Sprague Dawley rats
Conditions: for t1/2: Table XIV; for concentration at 0.05 h / concentration at 0.1 h / concentration at 0.25 h / concentration at 0.75 h / concentration at 1.5 h / concentration at 2.5 h / concentration at 4 h / concentration at 6 h / concentration at 8 h / concentration at 24 h: single intravenous 10 mg/kg
Procedure: This study determined the intravenous pharmacokinetics and oral bioavailability of compound 1 of the invention (see FIG. 1A, structure no. 1), compound 2 of the invention (see FIG. 1D, structure no. 19) and compound 3 of the invention (see FIG. 1I, structure no. 53) following administration to Sprague Dawley rats at a dose level of 10 mg/kg.
Six groups of 3 male rats received either a single intravenous or single oral administration of compound 1, 2 or 3 of the invention at a dose level of 10 mg/kg. Blood samples were obtained at various times after dosing. Plasma samples were analysed for unchanged test item using a suitable LC-MS/MS method. Pharmacokinetic parameters were estimated from individual plasma concentrations.
Eighteen male rats each received either a single intravenous or a single oral administration of either compound 1, 2 or 3 at a dose level of 10 mg/kg. The formulation was orally administered to each animal by gastric gavage and intravenously administered to each animal via a tail vein. The dose was administered at a dose volume of 5 mL/kg. The formulations were administered to each animal according to the details in the following table:
Blood samples (ca 0.3 mL) were removed from the femoral vein of each animal into tubes containing lithium heparin as anticoagulant.
Blood samples were collected from 3 rats at the following times after dose administration: • 3, 6, 15, 45 min and 1.5, 2.5, 4, 6, 8, 24 h post dose. Oral Administration
Blood samples were collected from 3 rats at the following times after dose administration: • 5, 15, 45 min and 1.5, 2.5, 4, 6, 8, 24 h post dose. Processing of Blood Samples
Pharmacokinetic parameters of compound 1, 2 and 3 were derived by non-compartmental analysis using WinNonLin Pro version 5.0.1 (Pharsight 2005). The following parameters were derived, where appropriate, from the individual plasma concentration versus time profiles:
• F % The absolute oral bioavailability calculated as [AUC0-t (oral)*Dose(iv)/AUC0-t (iv)*Dose (oral)]*100 based on mean values derived after oral and intravenous administration Consideration was given to the estimation of λz and corresponding t1/2 values. Three or more points are required within the terminal phase for λz and t1/2 to be estimated. The following additional variables were tabulated to aid identification of potentially unreliable estimates of t1/2 and AUC:
Pharmacokinetic parameters were reported as geometric mean except Tmax which was reported as the median. Geometric coefficient of variation was calculated as: […]
Actual sampling times were used for all calculations of pharmacokinetic parameters. Plasma concentrations that were below the limit of quantification were taken as zero for the pharmacokinetic analysis.

[1] = intravenous 10 mg/kg, male rats, individual animals, acetate, 10 mg/kg
[2] = male, Sprague Dawley, rat, plasma, iv, 10 mg/kg, male rats, individual animals, read-out: Sample Concentration in plasma
[3] = male, Sprague Dawley, rat, plasma, iv, 10 mg/kg, male rats, mean of 3, read-out: Mean Concentration in plasma
[4] = male, Sprague Dawley, rat, plasma, iv, 10 mg/kg, male rats, individual animals, LLOQ 2.50, read-out: Sample Concentration in plasma
[5] = male, Sprague Dawley, rat, plasma, iv, 10 mg/kg, male rats, mean, read-out: Mean Concentration in plasma

For `N=C(N)NN=CC=Cc1cccn1-c1ccccc1Br` [Compound 3, [1-(2-bromophenyl)-1H-pyrrol-2-yl-allylideneamino]guanidinium acetate], the bioavailability (Sprague Dawley, rat, plasma, 10 mg/kg oral vs intravenous, male rats, from mean AUC0-t, read-out: Mean absolute oral bioavailability) was 20.6%, the t1/2 (intravenous 10 mg/kg, male rats, Arithmetic Mean) was 3.15 h and the t1/2 (intravenous 10 mg/kg, male rats, Geometric mean) was 3.14 h. For the same compound, the t1/2 (intravenous 10 mg/kg, male rats, Median) was 3.26 h, the t1/2 [1] was 3.26 h and 3.46 h and 2.74 h and the “Between-animal variability in systemic exposure, coefficient of variation (CV) of AUC0-t” value (intravenous 10 mg/kg, male rats) was “less than 30%”. The “AUC0-∞” value [1] was 1911 ng·h/mL and 2504 ng·h/mL, the AUC(0-t) [1] was 1896 ng·h/mL and 2258 ng·h/mL and the C0 [1] was 9463 ng/mL and 4924 ng/mL. For the same compound, the CL [1] was 90.3 mL/min/kg and 68.25 mL/min/kg, the MRT [1] was 2.53 h and the Vss [1] was 13694 mL/kg and 13225 mL/kg. The “Systemic clearance (in words)” value (intravenous 10 mg/kg, rats) was “high”, the “volume of distribution compared with total body water (in words)” value (intravenous 10 mg/kg, rats, total body water 668 mL/kg, acetate, 10 mg/kg) was “exceeded the total body water; also recorded: markedly greater than that of the total body water” and the “systemic plasma clearance (CL) compared with hepatic blood flow (in words)” value (intravenous 10 mg/kg, hepatic blood flow 3312 mL/h/kg) was “greater than hepatic blood flow”. It also gave an AUC(0-inf) (male, Sprague Dawley, rat, plasma, iv, 10 mg/kg, intravenous 10 mg/kg, male rats, Arithmetic Mean) of 2500 ng·h/mL, an AUC(0-t) (male, Sprague Dawley, rat, plasma, iv, 10 mg/kg, intravenous 10 mg/kg, male rats, Arithmetic Mean, read-out: AUC0-t) of 2410 ng·h/mL and a C0 (male, Sprague Dawley, rat, plasma, iv, 10 mg/kg, intravenous 10 mg/kg, male rats, Arithmetic Mean, read-out: C0) of 6630 ng/mL. For the same compound, the clearance (male, Sprague Dawley, rat, plasma, iv, 10 mg/kg, intravenous 10 mg/kg, male rats, Arithmetic Mean, read-out: CL (converted)) was 71.3 mL/min/kg, the MRT (male, Sprague Dawley, rat, plasma, iv, 10 mg/kg, intravenous 10 mg/kg, male rats, Arithmetic Mean, read-out: MRT) was 3.24 h and the Vd (male, Sprague Dawley, rat, plasma, iv, 10 mg/kg, intravenous 10 mg/kg, male rats, Arithmetic Mean, read-out: Vss) was 13.4 L/kg. The AUC(0-inf) (male, Sprague Dawley, rat, plasma, iv, 10 mg/kg, intravenous 10 mg/kg, male rats, Geometric mean) was 2460 ng·h/mL, the AUC(0-t) (male, Sprague Dawley, rat, plasma, iv, 10 mg/kg, intravenous 10 mg/kg, male rats, Geometric mean, read-out: AUC0-t) was 2360 ng·h/mL and the C0 (male, Sprague Dawley, rat, plasma, iv, 10 mg/kg, intravenous 10 mg/kg, male rats, Geometric mean, read-out: C0) was 6360 ng/mL. For the same compound, the clearance (male, Sprague Dawley, rat, plasma, iv, 10 mg/kg, intravenous 10 mg/kg, male rats, Geometric mean, read-out: CL (systemic plasma clearance) (converted)) was 69.9 mL/min/kg, the MRT (male, Sprague Dawley, rat, plasma, iv, 10 mg/kg, intravenous 10 mg/kg, male rats, Geometric mean, read-out: MRT) was 3.19 h and the Vd (male, Sprague Dawley, rat, plasma, iv, 10 mg/kg, intravenous 10 mg/kg, male rats, Geometric mean, read-out: Vss (mean apparent volume of distribution)) was 13.4 L/kg. It also gave a half-life (male, Sprague Dawley, rat, plasma, iv, 10 mg/kg, intravenous 10 mg/kg, male rats, Geometric mean, read-out: t1/2 (mean apparent terminal half-life) (converted)) of 188 min, an AUC(0-inf) (male, Sprague Dawley, rat, plasma, iv, 10 mg/kg, intravenous 10 mg/kg, male rats, Median) of 2500 ng·h/mL and an AUC(0-t) (male, Sprague Dawley, rat, plasma, iv, 10 mg/kg, intravenous 10 mg/kg, male rats, Median, read-out: AUC0-t) of 2260 ng·h/mL. For the same compound, the C0 (male, Sprague Dawley, rat, plasma, iv, 10 mg/kg, intravenous 10 mg/kg, male rats, Median, read-out: C0) was 5520 ng/mL, the clearance (male, Sprague Dawley, rat, plasma, iv, 10 mg/kg, intravenous 10 mg/kg, male rats, Median, read-out: CL (converted)) was 68.2 mL/min/kg and the MRT (male, Sprague Dawley, rat, plasma, iv, 10 mg/kg, intravenous 10 mg/kg, male rats, Median, read-out: MRT) was 3.23 h. It also gave a Vd (male, Sprague Dawley, rat, plasma, iv, 10 mg/kg, intravenous 10 mg/kg, male rats, Median, read-out: Vss) of 13.2 L/kg, an AUC(0-inf) (male, Sprague Dawley, rat, plasma, iv, 10 mg/kg, intravenous 10 mg/kg, male rats, individual animals) of 3090 ng·h/mL and an AUC(0-t) (male, Sprague Dawley, rat, plasma, iv, 10 mg/kg, intravenous 10 mg/kg, male rats, individual animals, read-out: AUC0-t) of 3080 ng·h/mL. The C0 (male, Sprague Dawley, rat, plasma, iv, 10 mg/kg, intravenous 10 mg/kg, male rats, individual animals, read-out: C0) was 5520 ng/mL, the clearance (male, Sprague Dawley, rat, plasma, iv, 10 mg/kg, intravenous 10 mg/kg, male rats, individual animals, read-out: CL (converted)) was 55.4 mL/min/kg and the MRT (male, Sprague Dawley, rat, plasma, iv, 10 mg/kg, intravenous 10 mg/kg, male rats, individual animals, read-out: MRT) was 3.96 h. The Vd (male, Sprague Dawley, rat, plasma, iv, 10 mg/kg, intravenous 10 mg/kg, male rats, individual animals, read-out: Vss) was 13.2 L/kg, the concentration at 0.05 h (male, Sprague Dawley, rat, plasma, iv, 10 mg/kg, male rats, 0.05 h (3 min), mean of 3, read-out: Mean Concentration in plasma) was 3170 ng/mL and the concentration at 0.05 h (male, Sprague Dawley, rat, plasma, iv, 10 mg/kg, male rats, 0.05 h, individual animals, read-out: Sample Concentration in plasma) was 2530 ng/mL. For the same compound, the concentration at 0.1 h [2] was 978 ng/mL, the concentration at 0.1 h [3] was 1100 ng/mL and the concentration at 0.25 h [2] was 481 ng/mL. It also gave a concentration at 0.25 h [3] of 780 ng/mL, a concentration at 0.75 h [2] of 404 ng/mL and a concentration at 0.75 h [3] of 465 ng/mL. For the same compound, the concentration at 1.5 h [2] was 274 ng/mL, the concentration at 1.5 h [3] was 335 ng/mL and the concentration at 2.5 h [2] was 240 ng/mL. It also gave a concentration at 2.5 h [3] of 251 ng/mL, a concentration at 4 h [2] of 179 ng/mL and a concentration at 4 h [3] of 192 ng/mL. The concentration at 6 h [2] was 103 ng/mL, the concentration at 6 h [3] was 119 ng/mL and the concentration at 8 h [4] was 62.3 ng/mL. The concentration at 8 h [5] was 81.2 ng/mL, the concentration at 24 h [4] was 3.08 ng/mL and the concentration at 24 h [5] was 2.82 ng/mL. For the same compound, the AUC(0-inf) (male, Sprague Dawley, rat, plasma, po, 10 mg/kg, oral 10 mg/kg, male rats, Arithmetic Mean) was 838 ng·h/mL, the AUC(0-t) (male, Sprague Dawley, rat, plasma, po, 10 mg/kg, oral 10 mg/kg, male rats, Arithmetic Mean, read-out: AUC0-t) was 518 ng·h/mL and the Cmax (male, Sprague Dawley, rat, plasma, po, 10 mg/kg, oral 10 mg/kg, male rats, Arithmetic Mean, read-out: Cmax) was 110 ng/mL. For the same compound, the MRT (male, Sprague Dawley, rat, plasma, po, 10 mg/kg, oral 10 mg/kg, male rats, Arithmetic Mean, read-out: MRT) was 6.83 h, the half-life (male, Sprague Dawley, rat, plasma, po, 10 mg/kg, oral 10 mg/kg, male rats, Arithmetic Mean, read-out: t1/2 (converted)) was 198 min and the Tmax (male, Sprague Dawley, rat, plasma, po, 10 mg/kg, oral 10 mg/kg, male rats, Arithmetic Mean, read-out: tmax) was 4.67 h.
